Patent US7105296B2, “Genes encoding Baeyer-Villiger monooxygenases” (E. I. du Pont de Nemours and Company, priority 2001, dated 2006)
Values belong to the compound of their own block, whether it stands above or below them.

What was measured:
Test in all cases: chnB monooxygenase activity by NADPH oxidation at 340 nm
Format in all cases: biochemical
[1] = test system: Acidovorax sp. CHX chnB monooxygenase; settings: purified over-expressed enzyme; 1.25 mM substrate; pH 7.5; ND = No Activity Detected
From the text: (§1) Following amplification, the chnB gene fragments were cloned into pTrcHis-TOPO TA vectors with either an N-terminal tail or C-terminal tail, as provided by the vector sequence (N-terminal tail for Brevibacterium sp. HCU, Rhodococcus sp. phi1, Rhodococcus sp. phi2, and Arthrobacter sp. BP2 monooxygenases; C-terminal tail for Acinetobacter sp. SE19 and Acidovorax sp. CHX monooxygenases). These vectors were transformed into E. coli, with transformants grown in Luria-Bertani broth supplemented with ampicillin (100 ug/ml) and riboflavin (0.1 ug/ml) at 30° C. until the absorbance at 600 nm (A600) reached 0.5. When the A600 was reached, the temperature was shifted to 16° C.
(§2) The encoded monooxygenase sequences were expressed upon addition of IPTG to the culture media, 30 min after the temperature shift to 16° C. The cultures were grown further overnight (14 hrs) and harvested by centrifugation in a cold centrifuge. The cells were treated with lysozyme (100 mg/ml) for 30 min on ice and sonicated. Following sonication, cell extracts were centrifuged and the supernatant was equilibrated with Ni-NTA resin (Qiagen, Valencia, Calif.) for 1 hr at 4° C. Protein bound resin was washed successively with increasing concentrations of imidazole buffer until the protein of interest was released from the resin. The purified protein was concentrated and the buffer exchanged to remove the imidazole. The protein concentration was adjusted to 1 ug/ml.
(§3) Compounds were selected on the basis of previous observations by van der Werf (J. Biochem. 347:693–701 (2000)) and Miyamoto et al. (Biochimica et Biophysica Acta 1251: 115–124 (1995)) and by searches for the ketone substructure.
(§4) All compounds were obtained from Sigma-Aldrich with only two exceptions. Levoglucosenone was obtained from Toronto Research Chemicals, Inc. and dimethyl-2-piperidone was prepared according to U.S. Pat. No. 6,077,955. For enzyme assays all compounds were dissolved to a concentration of 0.1 M in methanol, with the exceptions of norcamphor (dissolved in ethyl acetate), cyclododecanone, cycltridecanone and cyclopentadecanone (dissolved in propanol), and levoglucosenone (dissolved with acetone).
(§5) The monooxygenase activity of each over-expressed enzyme was assayed spectrophotometrically at 340 nm by monitoring the oxidation of NADPH. Assays were performed in individual quartz cuvettes, with a pathlength of 1 cm. […] An Ultrospec 4000 (Pharmacia Biotech, Cambridge, England) was used to read the absorbance of the samples over a two to ten minute time period and the SWIFT (Pharmacia Biotech) program was used to calculate the slope of the reduction in absorbance over time. For the Brevibacterium sp. […] Monooxygenase activity of each over-expressed enzyme is shown in Table 5, with respect to each ketone substrate. The specific activity values listed are given in umol/min/mg. The notation “ND” refers to “No Activity Detected”.

[2] = target: T1, Acinetobacter sp. SE19 chnB monooxygenase (Acinetobacter sp., UniProt Q9F7E4); settings: purified over-expressed enzyme; 1.25 mM substrate; pH 7.5; ND = No Activity Detected
T1 construct: expression in E. coli of isolated full length BVMO genes from Brevibacterium sp; HCU, Acinetobacter SE19; C-terminal tail provided by the pTrcHis-TOPO vector (C); made in house; host or cells: E. coli
From the text: as §1, §2, §3, §4, §5

[3] = test system: Rhodococcus sp. phi1 chnB monooxygenase; settings: purified over-expressed enzyme; 1.25 mM substrate; pH 7.5; ND = No Activity Detected
From the text: as §1, §2, §3, §4, §5

[4] = test system: Rhodococcus sp. phi2 chnB monooxygenase; settings: purified over-expressed enzyme; 1.25 mM substrate; pH 7.5; ND = No Activity Detected
From the text: as §1, §2, §3, §4, §5

[5] = test system: Arthrobacter sp. BP2 chnB monooxygenase; settings: purified over-expressed enzyme; 1.25 mM substrate; pH 7.5; ND = No Activity Detected
From the text: as §1, §2, §3, §4, §5

[6] = test system: Brevibacterium sp. HCU chnB1 monooxygenase; settings: purified over-expressed enzyme; 1.25 mM substrate; pH 7.5; ND = No Activity Detected
From the text: as §1, §2, §3, §4, §5

[7] = test system: Brevibacterium sp. HCU chnB2 monooxygenase; settings: purified over-expressed enzyme; 1.25 mM substrate; pH 7.5; rates multiplied by a factor of 3.25 to adjust for decrease in activity due to storage; ND = No Activity Detected
From the text: as §1, §2, §3, §4, §5

SMILES: O=C1CCCCC1=O [1,2-cyclohexanedione]
Specific Activity of Monooxygenase Enzymes Against Various Ketone Substrates, sp. CHX chnB [1]: 0.096 µmol/min/mg
Specific Activity of Monooxygenase Enzymes Against Various Ketone Substrates, sp. SE19 chnB [2]: 0.077 µmol/min/mg
Specific Activity of Monooxygenase Enzymes Against Various Ketone Substrates, sp. phi1 chnB [3]: 0.083 µmol/min/mg

SMILES: O=C1CCCCCCCCC1 [Cyclodecanone]
Specific Activity of Monooxygenase Enzymes Against Various Ketone Substrates, sp. CHX chnB [1]: 0.160 µmol/min/mg
Specific Activity of Monooxygenase Enzymes Against Various Ketone Substrates, sp. SE19 chnB [2]: 0.320 µmol/min/mg
Specific Activity of Monooxygenase Enzymes Against Various Ketone Substrates, sp. phi1 chnB [3]: 0.077 µmol/min/mg

SMILES: O=C1CCCCCCCCCCC1 [Cyclododecanone]
Specific Activity of Monooxygenase Enzymes Against Various Ketone Substrates, sp. CHX chnB [1]: 0.051 µmol/min/mg

SMILES: O=C1CCCCCCC1 [Cyclooctanone]
Specific Activity of Monooxygenase Enzymes Against Various Ketone Substrates, sp. CHX chnB [1]: 0.410 µmol/min/mg

SMILES: O=C1CCCCCCCCCC1 [Cycloundecanone]
Specific Activity of Monooxygenase Enzymes Against Various Ketone Substrates, sp. CHX chnB [1]: 0.058 µmol/min/mg
Specific Activity of Monooxygenase Enzymes Against Various Ketone Substrates, sp. SE19 chnB [2]: 0.064 µmol/min/mg
Specific Activity of Monooxygenase Enzymes Against Various Ketone Substrates, sp. BP2 chnB [5]: 0.064 µmol/min/mg
Specific Activity of Monooxygenase Enzymes Against Various Ketone Substrates, sp. phi2 chnB [4]: 0.051 µmol/min/mg

SMILES: C[S+](C)[O-] [dimethyl sulfoxide]
Specific Activity of Monooxygenase Enzymes Against Various Ketone Substrates, sp. HCU chnB1 [6]: 0.230 µmol/min/mg

Second part, the compound after the results:

Specific Activity of Monooxygenase Enzymes Against Various Ketone Substrates, sp. CHX chnB [1]: 0.032 µmol/min/mg
SMILES: O=C1CCCC(=O)C1 [1,3-cyclohexanedione]

Specific Activity of Monooxygenase Enzymes Against Various Ketone Substrates, sp. phi2 chnB [4]: 0.730 µmol/min/mg
SMILES: O=C1CCCCC1c1ccccc1 (centres unmarked) [2-phenyl-cyclohexanone]

Specific Activity of Monooxygenase Enzymes Against Various Ketone Substrates, sp. CHX chnB [1]: 0.096 µmol/min/mg
Specific Activity of Monooxygenase Enzymes Against Various Ketone Substrates, sp. phi1 chnB [3]: 0.160 µmol/min/mg
SMILES: CCCCCCCCCCCC(C)=O [2-tridecanone]

Specific Activity of Monooxygenase Enzymes Against Various Ketone Substrates, sp. HCU chnB1 [6]: 0.410 µmol/min/mg
SMILES: O=C1CC2CC[C@H]1C2 [Norcamphor]

Specific Activity of Monooxygenase Enzymes Against Various Ketone Substrates, sp. HCU chnB2 [7]: 0.270 µmol/min/mg
Specific Activity of Monooxygenase Enzymes Against Various Ketone Substrates, sp. phi1 chnB [3]: 0.160 µmol/min/mg
SMILES: CCCCCCC(=O)CCCCCC [dihexyl ketone]
